Reference: PubChem BioAssay (NCI)
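Briefly, cells in 96-well plates were exposed to five compound concentrations for 48 h, and endpoints were estimated by linear interpolation. TGI: concentration producing complete growth inhibition.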

Tests used:
Assay in all cases: growth of human tumour cells (NCI), 48 h
SF-539 CNS = system: SF-539 CNS
NCI-H23 lung = system: NCI-H23 lung
DLD-1 colon = system: DLD-1 colon
RXF 393 renal = system: RXF 393 renal
LXFL 529 NSCLC = system: LXFL 529 NSCLC
KM20L2 colon = system: KM20L2 colon
K-562 leukemia = system: K-562 leukemia
SK-MEL-2 melanoma = system: SK-MEL-2 melanoma
SF-295 CNS = system: SF-295 CNS
SK-MEL-5 melanoma = system: SK-MEL-5 melanoma
XF 498 CNS = system: XF 498 CNS
HL-60(TB) leukemia = system: HL-60(TB) leukemia
MOLT-4 leukemia = system: MOLT-4 leukemia
OVCAR-5 ovarian = system: OVCAR-5 ovarian
NCI-H522 lung = system: NCI-H522 lung
HCT-15 colon = system: HCT-15 colon
UACC-257 melanoma = system: UACC-257 melanoma
CCRF-CEM leukemia = system: CCRF-CEM leukemia
U251 CNS = system: U251 CNS
UACC-62 melanoma = system: UACC-62 melanoma
HT29 colon = system: HT29 colon
IGROV1 ovarian = system: IGROV1 ovarian
SN12C renal = system: SN12C renal
SNB-78 CNS = system: SNB-78 CNS
OVCAR-8 ovarian = system: OVCAR-8 ovarian
OVCAR-3 ovarian = system: OVCAR-3 ovarian
M14 melanoma = system: M14 melanoma
HOP-92 NSCLC = system: HOP-92 NSCLC
MALME-3M melanoma = system: MALME-3M melanoma
HCT-116 colon = system: HCT-116 colon
HCC-2998 colon = system: HCC-2998 colon
SR leukemia = system: SR leukemia
KM12 colon = system: KM12 colon
NCI-H226 lung = system: NCI-H226 lung
EKVX NSCLC = system: EKVX NSCLC
SNB-75 CNS = system: SNB-75 CNS
HOP-62 NSCLC = system: HOP-62 NSCLC
SF-268 CNS = system: SF-268 CNS
NCI-H460 lung = system: NCI-H460 lung
SK-MEL-28 melanoma = system: SK-MEL-28 melanoma
TK-10 renal = system: TK-10 renal
ACHN renal = system: ACHN renal
DMS 273 small cell lung = system: DMS 273 small cell lung
M19-MEL melanoma = system: M19-MEL melanoma
LOX IMVI melanoma = system: LOX IMVI melanoma
CAKI-1 renal = system: CAKI-1 renal
RPMI-8226 leukemia = system: RPMI-8226 leukemia
A549 NSCLC = system: A549 NSCLC
SW-620 colon = system: SW-620 colon
A498 renal = system: A498 renal
UO-31 renal = system: UO-31 renal
786-0 renal = system: 786-0 renal
SNB-19 CNS = system: SNB-19 CNS
DMS 114 small cell lung = system: DMS 114 small cell lung
COLO 205 colon = system: COLO 205 colon
SK-OV-3 ovarian = system: SK-OV-3 ovarian
OVCAR-4 ovarian = system: OVCAR-4 ovarian

In the case of `COc1cc2c3cc1Oc1c(OC)c(OC)cc4c1[C@@H](Cc1ccc(O)c(c1)Oc1ccc(cc1)C[C@@H]3N(C)CC2)N(C)CC4`, the TGI (SF-539 CNS) is reported as 13.1 µM, the TGI (NCI-H23 lung) is reported as 61.3 µM and the TGI (DLD-1 colon) is reported as 56.3 µM. The TGI (RXF 393 renal) was 25.9 µM, the TGI (LXFL 529 NSCLC) was 24.8 µM and the TGI (KM20L2 colon) was 21.1 µM. For the same molecule, the TGI (K-562 leukemia) was 33.5 µM, the TGI (SK-MEL-2 melanoma) was 30.9 µM and the TGI (SF-295 CNS) was 30.9 µM. It also gave a TGI (SK-MEL-5 melanoma) of 11.8 µM, a TGI (XF 498 CNS) of 23.8 µM and a TGI (HL-60(TB) leukemia) of 26.4 µM. For the same molecule, the TGI (MOLT-4 leukemia) was 34.2 µM, the TGI (OVCAR-5 ovarian) was greater than 100 µM and the TGI (NCI-H522 lung) was 20.3 µM. The TGI (HCT-15 colon) was 27.2 µM, the TGI (UACC-257 melanoma) was 10.9 µM and the TGI (CCRF-CEM leukemia) was 45.2 µM. For the same molecule, the TGI (U251 CNS) was 21.7 µM, the TGI (UACC-62 melanoma) was 30.5 µM and the TGI (HT29 colon) was 24.1 µM. The TGI (IGROV1 ovarian) was 36.9 µM, the TGI (SN12C renal) was 46.5 µM and the TGI (SNB-78 CNS) was greater than 100 µM. For the same molecule, the TGI (OVCAR-8 ovarian) was 31.7 µM, the TGI (OVCAR-3 ovarian) was 29.5 µM and the TGI (M14 melanoma) was 16.7 µM. It also gave a TGI (HOP-92 NSCLC) of 24.7 µM, a TGI (MALME-3M melanoma) of 31.7 µM and a TGI (HCT-116 colon) of 21.1 µM. The TGI (HCC-2998 colon) was 20.4 µM, the TGI (SR leukemia) was 4.95 µM and the TGI (KM12 colon) was 27.7 µM. For the same molecule, the TGI (NCI-H226 lung) was 44.8 µM, the TGI (EKVX NSCLC) was 31.3 µM and the TGI (SNB-75 CNS) was 23.2 µM. The TGI (HOP-62 NSCLC) was 36 µM, the TGI (SF-268 CNS) was 45.6 µM and the TGI (NCI-H460 lung) was 75.6 µM. For the same molecule, the TGI (SK-MEL-28 melanoma) was 29.5 µM, the TGI (TK-10 renal) was 35.4 µM and the TGI (ACHN renal) was 38.1 µM. The TGI (DMS 273 small cell lung) was 34 µM, the TGI (M19-MEL melanoma) was 26.2 µM and the TGI (LOX IMVI melanoma) was 34.6 µM. The TGI (CAKI-1 renal) was 19.7 µM, the TGI (RPMI-8226 leukemia) was 41.5 µM and the TGI (A549 NSCLC) was 62 µM. For the same molecule, the TGI (SW-620 colon) was 33.8 µM, the TGI (A498 renal) was 38.5 µM and the TGI (UO-31 renal) was 30.1 µM. The TGI (786-0 renal) was 25.6 µM and the TGI (SNB-19 CNS) was 45.3 µM.

Work on `CCCCCN(CCCCC)C(=O)[C@H](CCC(=O)O)NC(=O)c1cc2ccccc2[nH]1` yielded a TGI (SF-539 CNS) greater than 100 µM, a TGI (NCI-H23 lung) of 85.8 µM and a TGI (DLD-1 colon) greater than 100 µM. The TGI (DMS 114 small cell lung) was greater than 100 µM, the TGI (RXF 393 renal) was 93.5 µM and the TGI (LXFL 529 NSCLC) was greater than 100 µM. The TGI (KM20L2 colon) was greater than 100 µM, the TGI (K-562 leukemia) was greater than 100 µM and the TGI (SK-MEL-2 melanoma) was greater than 100 µM. The TGI (SF-295 CNS) was greater than 100 µM, the TGI (XF 498 CNS) was greater than 100 µM and the TGI (HL-60(TB) leukemia) was 61.8 µM. It also gave a TGI (MOLT-4 leukemia) of 64.4 µM, a TGI (OVCAR-5 ovarian) greater than 100 µM and a TGI (NCI-H522 lung) of 67.7 µM. It also gave a TGI (HCT-15 colon) greater than 100 µM, a TGI (UACC-257 melanoma) greater than 100 µM and a TGI (CCRF-CEM leukemia) greater than 100 µM. The TGI (U251 CNS) was greater than 100 µM, the TGI (UACC-62 melanoma) was greater than 100 µM and the TGI (HT29 colon) was greater than 100 µM. For the same molecule, the TGI (COLO 205 colon) was greater than 100 µM, the TGI (IGROV1 ovarian) was greater than 100 µM and the TGI (SN12C renal) was greater than 100 µM. For the same molecule, the TGI (SNB-78 CNS) was greater than 100 µM, the TGI (OVCAR-8 ovarian) was greater than 100 µM and the TGI (OVCAR-3 ovarian) was greater than 100 µM. The TGI (M14 melanoma) was greater than 100 µM, the TGI (HOP-92 NSCLC) was 99.4 µM and the TGI (MALME-3M melanoma) was greater than 100 µM. It also gave a TGI (HCT-116 colon) of 92.5 µM, a TGI (HCC-2998 colon) greater than 100 µM and a TGI (KM12 colon) greater than 100 µM. It also gave a TGI (NCI-H226 lung) greater than 100 µM, a TGI (EKVX NSCLC) greater than 100 µM and a TGI (SK-OV-3 ovarian) greater than 100 µM. It also gave a TGI (SNB-75 CNS) of 98.4 µM, a TGI (HOP-62 NSCLC) greater than 100 µM and a TGI (SF-268 CNS) greater than 100 µM. For the same molecule, the TGI (NCI-H460 lung) was greater than 100 µM, the TGI (SK-MEL-28 melanoma) was 96.4 µM and the TGI (TK-10 renal) was greater than 100 µM. The TGI (ACHN renal) was greater than 100 µM, the TGI (DMS 273 small cell lung) was greater than 100 µM and the TGI (M19-MEL melanoma) was greater than 100 µM. For the same molecule, the TGI (LOX IMVI melanoma) was greater than 100 µM, the TGI (CAKI-1 renal) was greater than 100 µM and the TGI (RPMI-8226 leukemia) was 54.8 µM. It also gave a TGI (A549 NSCLC) greater than 100 µM, a TGI (SW-620 colon) greater than 100 µM and a TGI (A498 renal) greater than 100 µM. It also gave a TGI (UO-31 renal) greater than 100 µM, a TGI (786-0 renal) greater than 100 µM and a TGI (OVCAR-4 ovarian) greater than 100 µM. It also gave a TGI (SNB-19 CNS) greater than 100 µM.
